Results from patent US20080214537A1, “BRIDGED PHENANTHRIDINES” (CARA THERAPEUTICS, INC., priority 2007, published 2008).
pEC50: −log10 of the molar value.

Legend:
[1] = target: human CB2 receptor (hCB2) (Homo sapiens, UniProt P34972); test: cAMP assay (LANCE TR-FRET) in CHO-K1 cells expressing hCB2; format: cell-based; details: for Emax: CHO-K1, read-out: hCB2 % Max Range; for pEC50: CHO-K1 cells stably expressing hCB2, intracellular cAMP, NKH-477 prestimulated, average of at least three replicates
Chain of human CB2 receptor (hCB2) (P34972 whole entry): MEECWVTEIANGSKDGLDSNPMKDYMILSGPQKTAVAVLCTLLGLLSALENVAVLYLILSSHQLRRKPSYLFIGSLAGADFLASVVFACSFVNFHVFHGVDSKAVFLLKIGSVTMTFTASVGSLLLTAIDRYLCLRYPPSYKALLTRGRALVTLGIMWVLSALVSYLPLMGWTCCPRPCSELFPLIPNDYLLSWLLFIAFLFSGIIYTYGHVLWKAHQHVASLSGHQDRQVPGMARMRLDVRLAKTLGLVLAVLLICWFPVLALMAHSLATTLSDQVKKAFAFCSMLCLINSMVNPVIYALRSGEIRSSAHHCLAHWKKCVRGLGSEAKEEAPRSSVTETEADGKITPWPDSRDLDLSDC
Description: (§1) The ability of compounds to act as agonists or inverse agonists at human CB2 and CB1 receptors (hCB2, hCB1, respectively) was determined by measuring changes in intracellular cAMP levels. Chinese Hamster Ovary (CHO-K1) cell lines stably expressing hCB2 (Genebank: X74328) or hCB1 (Genebank: X54937) were purchased from Euroscreen (Gosselies, Belgium).
(§2) Cell lines were grown in suspension in EX-CELL 302 CHO Serum-free medium (Sigma, catalog #14324C) supplemented with 1% Fetal Bovine Serum, glutamine and with or without non-essential amino-acids under 0.4 mg/mL G418 selection.
(§3) Receptor mediated responses were determined by measuring changes in intracellular cAMP using LANCE cAMP detection kit (catalog #AD0264, PerkinElmer, Wellesley, Mass.) based on time-resolved fluorescence resonance energy transfer (TR-FRET). Changes in cAMP were determined in cells pre-incubated with IBMX (isobutyl methylxanthine) and prestimulated with NKH-477 (a water soluble forskolin derivative, catalog #1603, Tocris, Ellisville, Mo.) to increase basal cAMP levels as detailed below.
(§4) On the day of the experiment, cells were spun at low speed for 5 min at room temperature. The supernatant was removed and cells were resuspended in stimulation buffer (Hanks Buffered Salt Solution/5 mM HEPES, containing 0.5 mM IBMX (catalog #17018, Sigma) and 0.02% BSA (PerkinElmer, catalog #CR84-100)). Cell clumps were removed by filtering through cell strainer 40 μm (BD Falcon, Discovery Labware, Bedford, Mass.) and diluted to 2×10^5 cells/mL. Antibody supplied with the LANCE cAMP immunoassay kit was then added according to the manufacturer's instructions. An aliquot of cells was taken for un-induced controls. To the remaining cells was added NKH-477 (a water soluble forskolin derivative, Tocris catalog #1603) to a final concentration of 2-8 μM. Cells were then incubated for either 25 or 30 min at room temperature prior to adding to Proxiplates containing test compounds (final DMSO concentration was less than 0.5%) with a Multidrop bulk dispenser, followed by a sixty minute incubation at room temperature. The response was stopped by addition of the detection mix supplied with the LANCE kit.
(§5) The reagents were allowed to equilibrate for three hours prior to reading on an Envision multi-mode detector (PerkinElmer). TR-FRET was measured using a 330-380 nm excitation filter, 615 and 665 nm emission filters, dichroic mirror 380 nm and Z=1 mm.
(§6) Cyclic AMP concentrations in each well were back-calculated from a cAMP standard curve run concurrently during each assay. Each plate contained 16 wells of forskolin stimulated cells and 16 wells of forskolin plus CP55,940-treated. CP55,940-treated cells were treated with CP55,940 (Tocris catalog #0949) at 1 μM and the maximal response was used as the full range (100%) standard. WIN55,212 (Tocris catalog #1038) was used as an internal standard. Concentrations of cAMP were expressed as a percent of the difference of these two groups of wells. Concentration-response data including EC50 (the concentration of compound producing 50% of the maximal response) and intrinsic activity (the percent maximal activation compared to full activation by CP55,940) were determined using a four-parameter non-linear regression algorithm (Xlfit equation 251, IDBS). Assays were performed with at least three replicates per compound and averaged results for the several compounds of the invention are shown in Table I.

[2] = target: human CB1 receptor (hCB1) (Homo sapiens, UniProt P21554); test: cAMP assay (LANCE TR-FRET) in CHO-K1 cells expressing hCB1; format: cell-based; details: activity on hCB1 represents inverse agonism; for pEC50: CHO-K1 cells stably expressing hCB1, intracellular cAMP, NKH-477 prestimulated; for hCB1 % Max Range: percent of range defined by CP55,940 (1 μM = 100%); for Emax: CHO-K1, percent of range defined by CP55,940 (1 μM = 100%), read-out: hCB1 % Max Range
Chain of human CB1 receptor (hCB1) (P21554 whole entry): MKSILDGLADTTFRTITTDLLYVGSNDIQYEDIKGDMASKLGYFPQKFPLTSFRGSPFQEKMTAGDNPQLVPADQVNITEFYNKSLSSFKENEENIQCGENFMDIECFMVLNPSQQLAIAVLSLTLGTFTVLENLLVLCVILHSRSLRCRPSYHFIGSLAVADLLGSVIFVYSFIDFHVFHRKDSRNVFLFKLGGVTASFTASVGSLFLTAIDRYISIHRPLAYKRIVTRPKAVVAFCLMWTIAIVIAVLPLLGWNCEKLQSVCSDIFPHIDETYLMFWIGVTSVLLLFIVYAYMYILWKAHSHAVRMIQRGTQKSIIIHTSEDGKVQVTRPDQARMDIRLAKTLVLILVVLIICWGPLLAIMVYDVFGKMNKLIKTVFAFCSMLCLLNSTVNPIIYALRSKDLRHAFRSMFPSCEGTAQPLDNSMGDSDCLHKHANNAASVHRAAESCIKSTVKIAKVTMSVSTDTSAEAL
Description: as §1, §2, §3, §4, §5
as §6, with “IDBS).” for “IDBS). Assays were performed with at least three replicates per compound and averaged results for the several compounds of the invention are shown in Table I.”

[3] = intrinsic activity: percent maximal activation compared to full activation by CP55,940 (1 μM = 100%)

SMILES	Emax [1, 3]	pEC50 [1]	pEC50 [2]	hCB1 % Max Range [2]	hCB2 % Max Range [1, 3]	Emax [2]
CC(=O)Nc1ccc2c(c1)C1C3CCC(C3)C1C(c1ccc(C)cc1)N2 (single isomer, unassigned) [(25a), Bridged N-(6-p-tolyl-5,6,6a,7,8,9,10,10a-octahydrophenanthridin-2-yl)acetamide]	< 40%	< 5.00	5.48	78%	–	–
CC(=O)Nc1ccc2c(c1)C1C3CCC(C3)C1C(c1ccc(C)cc1)N2 (single isomer, unassigned) [(25b), Bridged N-(6-p-tolyl-5,6,6a,7,8,9,10,10a-octahydrophenanthridin-2-yl)acetamide]	–	< 5.00	5.45	107%	N/A (N/A: Response <40% assay range)	–
CCCNC(=S)Nc1ccc2c(c1)C1C3CCC(C3)C1C(c1ccccc1)N2 (stereo not drawn) [(6), Bridged 1-propyl-3-(phenyl-5,6,6a,7,8,9,10,10a-octahydrophenanthridin-2-yl)thiourea]	76%	7.00	5.73	–	–	53%
CCCNC(=O)Nc1ccc2c(c1)C1C3CCC(C3)C1C(c1ccc(C)cc1)N2 (stereo not drawn) [(7), Bridged 1-propyl-3-(6-p-tolyl-5,6,6a,7,8,9,10,10a-octahydrophenanthridin-2-yl)urea]	< 40%	< 5.00	< 5.00	–	–	< 40%
CCCNC(=S)Nc1ccc2c(c1)C1C3CCC(C3)C1C(c1ccc(C)cc1)N2 (stereo not drawn) [(8), Bridged 1-propyl-3-(6-p-tolyl-5,6,6a,7,8,9,10,10a-octahydrophenanthridin-2-yl)thiourea]	< 40%	< 5.00	5.69	–	–	63%
O=S(=O)(c1ccc2c(c1)C1C3CCC(C3)C1C(c1c(Cl)cccc1Cl)N2)N1CCCCC1 (stereo not drawn) [(9), Bridged 6-(2,6-dichlorophenyl)-2-(piperidin-1-ylsulfonyl)-5,6,6a,7,8,9,10,10a-octahydrophenanthridine]	75%	7.10	< 5.00	–	–	< 40%
Cc1ccc(C2Nc3ccc(S(=O)(=O)N4CCCCC4)cc3C3C4CCC(C4)C23)cc1 (stereo not drawn) [(10), Bridged 2-(piperidin-1-ylsulfonyl)-6-p-tolyl-5,6,6a,7,8,9,10,10a-octahydrophenanthridine]	98%	7.68	< 5.00	–	–	< 40%
CN(C)S(=O)(=O)c1ccc2c(c1)C1C3CCC(C3)C1C(c1ccccc1)N2 (stereo not drawn) [(11), Bridged N,N-dimethyl-6-phenyl-5,6,6a,7,8,9,10,10a-octahydrophenanthridine-2-sulfonamide]	99%	9.01	< 5.00	–	–	< 40%
COCCC(=O)Nc1ccc2c(c1)C1C3CCC(C3)C1C(c1ccccc1)N2 (stereo not drawn) [(12), Bridged 3-methoxy-N-(6-phenyl-5,6,6a,7,8,9,10,10a-octahydrophenanthridin-2-yl)propanamide]	82%	7.91	< 5.00	–	–	< 40%
O=C(Nc1ccc2c(c1)C1C3CCC(C3)C1C(c1ccccc1)N2)c1cocn1 (stereo not drawn) [(13), Bridged N-(6-phenyl-5,6,6a,7,8,9,10,10a-octahydrophenanthridin-2-yl)oxazole-4-carboxamide]	57%	6.17	< 5.00	–	–	< 40%
O=C(CC1CCCO1)Nc1ccc2c(c1)C1C3CCC(C3)C1C(c1ccccc1)N2 (stereo not drawn) [(14), Bridged N-(6-phenyl-5,6,6a,7,8,9,10,10a-octahydrophenanthridin-2-yl)-2-(tetrahydrofuran-2-yl) acetamide]	92%	8.04	< 5.00	–	–	< 40%
COCCC(=O)Nc1ccc2c(c1)C1C3CCC(C3)C1C(c1ccc(C)cc1)N2 (stereo not drawn) [(15), Bridged 3-methoxy-N-(6-p-tolyl-5,6,6a,7,8,9,10,10a-octahydrophenanthridin-2-yl)propanamide]	< 40%	< 5.00	5.63	–	–	56%
Cc1ccc(C2Nc3ccc(NC(=O)CC4CCCO4)cc3C3C4CCC(C4)C23)cc1 (stereo not drawn) [(16), Bridged 2-(tetrahydrofuran-2-yl)-N-(6-p-tolyl-5,6,6a,7,8,9,10,10a-octahydrophenanthridin-2-yl)acetamide]	52%	6.99	< 5.00	–	–	< 40%
c1ccc(C2Nc3ccc(N4CCOCC4)cc3C3C4CCC(C4)C23)cc1 (stereo not drawn) [(17), Bridged 4-(6-phenyl-5,6,6a,7,8,9,10,10a-octahydrophenanthridin-2-yl)morpholine]	94%	6.85	< 5.00	–	–	< 40%
Cc1ccc(C2Nc3ccc(N4CCOCC4)cc3C3C4CCC(C4)C23)cc1 (stereo not drawn) [(18), Bridged 4-(6-p-tolyl-5,6,6a,7,8,9,10,10a-octahydrophenanthridin-2-yl)morpholine]	< 40%	< 5.00	< 5.00	–	–	< 40%
O=C(Nc1ccc2c(c1)C1C3CCC(C3)C1C(c1ccccc1)N2)C1CC1 (stereo not drawn) [(19), Bridged N-(6-phenyl-5,6,6a,7,8,9,10,10a-octahydrophenanthridin-2-yl)cyclopropanecarboxamide]	49%	6.73	5.77	–	–	53%
O=C(Nc1ccc2c(c1)C1C3CCC(C3)C1C(c1c(Cl)cccc1Cl)N2)C1CC1 (stereo not drawn) [(20), Bridged N-(6-(2,6-dichlorophenyl)-5,6,6a,7,8,9,10,10a-octahydrophenanthridin-2-yl)cyclopropanecarboxamide]	< 40%	< 5.00	< 5.00	–	–	< 40%
CCC1Nc2ccc(NC(=O)C3CC3)cc2C2C3CCC(C3)C12 (stereo not drawn) [(21), Bridged N-(6-ethyl-5,6,6a,7,8,9,10,10a-octahydrophenanthridin-2-yl)cyclopropanecarboxamide]	84%	5.92	< 5.00	–	–	< 40%
Cc1ccc(C2Nc3ccc(NC(=O)C4CC4)cc3C3C4CCC(C4)C23)cc1 (stereo not drawn) [(22), Bridged N-(6-p-tolyl-5,6,6a,7,8,9,10,10a-octahydrophenanthridin-2-yl)cyclopropanecarboxamide]	53%	7.85	5.74	–	–	115%
CC(=O)Nc1ccc2c(c1)C1C3CCC(C3)C1C(c1ccccc1)N2 (stereo not drawn) [(23), Bridged N-(6-phenyl-5,6,6a,7,8,9,10,10a-octahydrophenanthridin-2-yl)acetamide]	82%	7.37	5.58	–	–	88%
CC(=O)Nc1ccc2c(c1)C1C3CCC(C3)C1C(c1c(Cl)cccc1Cl)N2 (stereo not drawn) [(24), Bridged N-(6-(2,6-dichlorophenyl)-5,6,6a,7,8,9,10,10a-octahydrophenanthridin-2-yl)acetamide]	< 40%	< 5.00	< 5.00	–	–	< 40%
